Test results reported in PMC9841524, “Structure-Based Rational Design of Small α-Helical Peptides with Broad-Spectrum Activity against Multidrug-Resistant Pathogens” (Journal of Medicinal Chemistry, 2022).
Where no end group is shown, it is not given here.

Test system: S. aureus (ATCC 29213)
Test: MIC, standard microtiter dilution (CLSI)
Format: cell-based
Details: broth microdilution (CLSI), CAMHB, 10^6 CFU/mL, 37 °C, 24 h; highest MIC of three independent experiments in triplicate
Protocol: (§1) Description of the characteristics and growth conditions of various bacterial strains used in the study are provided in the Supporting Information (Table S3). Antibacterial susceptibility testing was carried out using a standard microtiter dilution method recommended by the clinical and laboratory standard institute (CLSI) and measured as a minimum inhibitory concentration (MIC), the lowest peptide concentration that inhibited bacterial growth. Briefly, the overnight grown cultures in the recommended broth for each bacterial strain were diluted in cation-adjusted Mueller Hinton Broth (CAMHB) to give an inoculum of 10^6 colony-forming units (CFU)/mL. A 2-fold serially diluted test peptide solution (100 μL) was added to the microtiter plates. After adding bacterial suspension (100 μL), the plates were incubated at 37 °C for 24 h, and the MICs were determined. The same protocol was used to determine the MICs in the presence of salts and serum except using the media supplemented with various cationic salts (150 mM NaCl, 4.5 mM KCl, 6 mM NH4Cl, 1 mM MgCl2, and 2 mM CaCl2) or 25% FBS. The data was acquired from three independent assays performed in triplicate.
(§2) The bacterial strains employed in this study were obtained from the American Type Culture Collection (ATCC). Each strain was propagated as recommended by the ATCC, and each strain was stored as a frozen glycerol stock at -80°C. A bacterial colony was grown on the appropriate agar as indicated in Table S1 and was used to inoculate the appropriate broth. The culture was incubated at the appropriate conditions, as mentioned in Table S1. Following the incubation, the culture was diluted to an optical density 625 nm (OD625) of 0.1 in cation adjusted Mueller Hinton Broth (CAMHB), which is equivalent to 1 × 10^8 CFU/mL. The culture was further diluted to 1 × 10^6 CFU/mL, which was used to conduct the MIC determination assay. For the S. pneumoniae strains, CAMHB + 2.5% lysed horse blood was required for the assay. The strains with their […]
(§3) Table S3. Description of the characteristics and growth conditions of various bacterial strains

Substance	MIC, S. aureus (ATCC 29213) [µg/mL]
ARRWWRRW-NH2 [2e]	100
AWWRRAWRR-NH2 [3f]	> 100
Ac-RWIRRWIRWWR-NH2 [5e]	50
Ac-RWLRRWLRWWR-NH2 [5f]	12.5
H-AAWRRWWRRA-NH2 [4h]	> 100
H-RAWRRAWRAW-NH2 [4a]	> 100

Same assay, conditions: value in parentheses (μM); broth microdilution (CLSI), CAMHB, 37 °C, 24 h

Substance	MIC, S. aureus (ATCC 29213) [µM]
ARRWWRRW-NH2 [2e]	78.65
AWWRRAWRR-NH2 [3f]	> 74.48
Ac-RWIRRWIRWWR-NH2 [5e]	27.61
Ac-RWLRRWLRWWR-NH2 [5f]	6.90
H-AAWRRWWRRA-NH2 [4h]	> 70.74
H-RAWRRAWRAW-NH2 [4a]	> 70.74

Test system: P. aeruginosa (ATCC 27883)
Test: MIC, standard microtiter dilution (CLSI)
Format: cell-based, Pseudomonas aeruginosa
Details: broth microdilution (CLSI), CAMHB, 10^6 CFU/mL, 37 °C, 24 h; highest MIC of three independent experiments in triplicate
Protocol: as §1, §2, §3

Substance	MIC, P. aeruginosa (ATCC 27883) [µg/mL]
ARRWWRRW-NH2 [2e]	> 100
AWWRRAWRR-NH2 [3f]	> 100
Ac-RWIRRWIRWWR-NH2 [5e]	50
Ac-RWLRRWLRWWR-NH2 [5f]	25
H-AAWRRWWRRA-NH2 [4h]	> 100
H-RAWRRAWRAW-NH2 [4a]	> 100

Same assay, conditions: value in parentheses (μM); broth microdilution (CLSI), CAMHB, 37 °C, 24 h

Substance	MIC, P. aeruginosa (ATCC 27883) [µM]
ARRWWRRW-NH2 [2e]	> 78.65
AWWRRAWRR-NH2 [3f]	> 74.48
Ac-RWIRRWIRWWR-NH2 [5e]	27.61
Ac-RWLRRWLRWWR-NH2 [5f]	13.80
H-AAWRRWWRRA-NH2 [4h]	> 70.74
H-RAWRRAWRAW-NH2 [4a]	> 70.74

Test system: human red blood cells (hRBCs)
Test: Hemolytic assay
Format: cell-based
Details: hRBC suspension 4% in PBS, 2 h, 37 °C, hemoglobin release at 567 nm; 1% Triton X-100 = 100%
Protocol: The hemolytic activity of all peptides (1a–8d) was determined using hRBC. The assay was conducted by adding 75 μL of 2-fold serially diluted peptides to 75 μL of hRBC suspension (4% in PBS). The plates were incubated for 2 h at 37 °C without agitation. In order to determine the hemolysis at each tested concentration of peptides, the plate was centrifuged, and 100 μL of the supernatant was transferred to another 96-well plate to determine hemoglobin release spectrophotometrically at 567 nm. Percent hemolysis was calculated by the following formula [drawing 1] where A represents the absorbance of the peptide sample at 567 nm and A0 and At represent zero percent and 100% hemolysis determined in phosphate buffer saline and 1% Triton X-100, respectively.

Substance	HC50 (concentration at which 50% hemolysis was observed) [µg/mL]
ARRWWRRW-NH2 [2e]	> 500
AWWRRAWRR-NH2 [3f]	> 500
Ac-RWIRRWIRWWR-NH2 [5e]	60
Ac-RWLRRWLRWWR-NH2 [5f]	65
H-AAWRRWWRRA-NH2 [4h]	> 500
H-RAWRRAWRAW-NH2 [4a]	> 500

Same assay, conditions: value in parentheses (μM); hRBC 4% in PBS, 2 h, 37 °C, 567 nm

Substance	HC50 (concentration at which 50% hemolysis was observed) [µM]
ARRWWRRW-NH2 [2e]	> 393.23
AWWRRAWRR-NH2 [3f]	> 372.42
Ac-RWIRRWIRWWR-NH2 [5e]	33.13
Ac-RWLRRWLRWWR-NH2 [5f]	35.89
H-AAWRRWWRRA-NH2 [4h]	> 353.69
H-RAWRRAWRAW-NH2 [4a]	> 353.69

Test system: K. pneumoniae (ATCCBAA-1705)
Test: MIC, standard microtiter dilution (CLSI)
Format: cell-based, Klebsiella pneumoniae
Details: broth microdilution (CLSI), CAMHB, 10^6 CFU/mL, 37 °C, 24 h; highest MIC of three independent experiments in triplicate
Protocol: as §1, §2, §3

Substance	MIC, K. pneumoniae (ATCCBAA-1705) [µg/mL]
ARRWWRRW-NH2 [2e]	> 100
AWWRRAWRR-NH2 [3f]	> 100
Ac-RWIRRWIRWWR-NH2 [5e]	100
Ac-RWLRRWLRWWR-NH2 [5f]	50
H-AAWRRWWRRA-NH2 [4h]	> 100
H-RAWRRAWRAW-NH2 [4a]	> 100

Same assay, conditions: value in parentheses (μM); broth microdilution (CLSI), CAMHB, 37 °C, 24 h

Substance	MIC, K. pneumoniae (ATCCBAA-1705) [µM]
ARRWWRRW-NH2 [2e]	> 78.65
AWWRRAWRR-NH2 [3f]	> 74.48
Ac-RWIRRWIRWWR-NH2 [5e]	55.21
Ac-RWLRRWLRWWR-NH2 [5f]	27.61
H-AAWRRWWRRA-NH2 [4h]	> 70.74
H-RAWRRAWRAW-NH2 [4a]	> 70.74

Test system: MRSA (ATCC BAA-1556)
Test: not given
Details: broth microdilution (CLSI), CAMHB, 10^6 CFU/mL, 37 °C, 24 h; highest MIC of three independent experiments in triplicate
Protocol: as §1, §2, §3

Substance	MIC, MRSA (ATCC BAA-1556) [µg/mL]
ARRWWRRW-NH2 [2e]	100
AWWRRAWRR-NH2 [3f]	> 100
Ac-RWIRRWIRWWR-NH2 [5e]	50
Ac-RWLRRWLRWWR-NH2 [5f]	12.5
H-AAWRRWWRRA-NH2 [4h]	> 100
H-RAWRRAWRAW-NH2 [4a]	> 100

Same assay, conditions: value in parentheses (μM); broth microdilution (CLSI), CAMHB, 37 °C, 24 h

Substance	MIC, MRSA (ATCC BAA-1556) [µM]
ARRWWRRW-NH2 [2e]	> 78.65
AWWRRAWRR-NH2 [3f]	> 74.48
Ac-RWIRRWIRWWR-NH2 [5e]	27.61
Ac-RWLRRWLRWWR-NH2 [5f]	6.90
H-AAWRRWWRRA-NH2 [4h]	> 70.74
H-RAWRRAWRAW-NH2 [4a]	> 70.74

Test system: E. coli (ATCC 25922)
Test: not given
Details: broth microdilution (CLSI), CAMHB, 10^6 CFU/mL, 37 °C, 24 h; highest MIC of three independent experiments in triplicate
Protocol: as §1, §2, §3

Substance	MIC, E. coli (ATCC 25922) [µg/mL]
ARRWWRRW-NH2 [2e]	> 100
AWWRRAWRR-NH2 [3f]	> 100
Ac-RWIRRWIRWWR-NH2 [5e]	100
Ac-RWLRRWLRWWR-NH2 [5f]	50
H-AAWRRWWRRA-NH2 [4h]	> 100
H-RAWRRAWRAW-NH2 [4a]	> 100

Same assay, conditions: value in parentheses (μM); broth microdilution (CLSI), CAMHB, 37 °C, 24 h

Substance	MIC, E. coli (ATCC 25922) [µM]
ARRWWRRW-NH2 [2e]	> 78.65
AWWRRAWRR-NH2 [3f]	> 74.48
Ac-RWIRRWIRWWR-NH2 [5e]	55.21
Ac-RWLRRWLRWWR-NH2 [5f]	27.61
H-AAWRRWWRRA-NH2 [4h]	> 70.74
H-RAWRRAWRAW-NH2 [4a]	> 70.74
